# Experimental data from ChEMBL document CHEMBL1201862, “PubChem BioAssay data set” (2004).
#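 Cultured in 96-well plates, cells were exposed to test compound for 48 hours across five concentrations. Abbreviation: GI50, concentration required for 50% inhibition of growth.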 Active and inactive are the calls of the source. Rule as the data show it: active = GI50 up to about 1.1 µM and inactive = higher.
# Columns and labels:
# Assay in all cases: growth of human tumour cells (NCI), 48 h
# 786-0 = system: 786-0
# A498 = system: A498
# A549 = system: A549
# ACHN = system: ACHN
# BT-549 = system: BT-549
# CAKI-1 = system: CAKI-1
# CCRF-CEM = system: CCRF-CEM
# COLO 205 = system: COLO 205
# DU-145 = system: DU-145
# EKVX = system: EKVX
# HCC 2998 = system: HCC 2998
# HCT-116 = system: HCT-116
# HCT-15 = system: HCT-15
# HL-60 = system: HL-60
# HOP-62 = system: HOP-62
# HOP-92 = system: HOP-92
# HT-29 = system: HT-29
# Hs-578T = system: Hs-578T
# IGROV-1 = system: IGROV-1
# K562 = system: K562
# KM12 = system: KM12
# LOX IMVI = system: LOX IMVI
# M14 = system: M14
# MCF7 = system: MCF7
# MDA-MB-231 = system: MDA-MB-231
# MDA-MB-435 = system: MDA-MB-435
# MDA-N = system: MDA-N
# MOLT-4 = system: MOLT-4
# NCI-H226 = system: NCI-H226
# NCI-H23 = system: NCI-H23
# NCI-H460 = system: NCI-H460
# NCI-H522 = system: NCI-H522
# NCI/ADR-RES = system: NCI/ADR-RES
# OVCAR-3 = system: OVCAR-3
# OVCAR-4 = system: OVCAR-4
# OVCAR-5 = system: OVCAR-5
# OVCAR-8 = system: OVCAR-8
# PC-3 = system: PC-3
# RPMI-8226 = system: RPMI-8226
# RXF 393 = system: RXF 393
# SF-268 = system: SF-268
# SF-295 = system: SF-295
# SF-539 = system: SF-539
# SK-MEL-2 = system: SK-MEL-2
# SK-MEL-5 = system: SK-MEL-5
# SK-OV-3 = system: SK-OV-3
# SN12C = system: SN12C
# SNB-19 = system: SNB-19
# SNB-75 = system: SNB-75
# SW-620 = system: SW-620
# T47D = system: T47D
# TK-10 = system: TK-10
# U-251 = system: U-251
# UACC-257 = system: UACC-257
# UACC-62 = system: UACC-62
# UO-31 = system: UO-31
# Malme-3M = system: Malme-3M
# SK-MEL-28 = system: SK-MEL-28
# SR = system: SR
structure (smiles),measurement,setting,value
CCOC(=O)Cc1csc(N/N=C2\C(=O)Nc3ccccc32)n1,GI50,786-0,69.5 µM (inactive)
same,GI50,A498,27.4 µM (inactive)
same,GI50,A549,41.6 µM (inactive)
same,GI50,ACHN,32.4 µM (inactive)
same,GI50,BT-549,32.7 µM (inactive)
same,GI50,CAKI-1,32.5 µM (inactive)
same,GI50,CCRF-CEM,28.4 µM (inactive)
same,GI50,COLO 205,28.6 µM (inactive)
same,GI50,DU-145,76.7 µM (inactive)
same,GI50,EKVX,32.1 µM (inactive)
same,GI50,HCC 2998,59 µM (inactive)
same,GI50,HCT-116,40.1 µM (inactive)
same,GI50,HCT-15,41 µM
same,GI50,HL-60,19.7 µM (inactive)
same,GI50,HOP-62,36.5 µM (inactive)
same,GI50,HOP-92,42.2 µM (inactive)
same,GI50,HT-29,42.6 µM (inactive)
same,GI50,Hs-578T,56.1 µM (inactive)
same,GI50,IGROV-1,17.4 µM (inactive)
same,GI50,K562,40.4 µM (inactive)
same,GI50,KM12,31.2 µM (inactive)
same,GI50,LOX IMVI,48.8 µM (inactive)
same,GI50,M14,41.7 µM (inactive)
same,GI50,MCF7,33.1 µM (inactive)
same,GI50,MDA-MB-231,43 µM (inactive)
same,GI50,MDA-MB-435,55.6 µM (inactive)
same,GI50,MDA-N,41.8 µM (inactive)
same,GI50,MOLT-4,29 µM (inactive)
same,GI50,NCI-H226,30.2 µM (inactive)
same,GI50,NCI-H23,32.6 µM (inactive)
same,GI50,NCI-H460,33.4 µM (inactive)
same,GI50,NCI-H522,19 µM (inactive)
same,GI50,NCI/ADR-RES,31.8 µM (inactive)
same,GI50,OVCAR-3,25.3 µM (inactive)
same,GI50,OVCAR-4,56.9 µM (inactive)
same,GI50,OVCAR-5,> 100 µM (inactive)
same,GI50,OVCAR-8,40.6 µM (inactive)
same,GI50,PC-3,30.1 µM (inactive)
same,GI50,RPMI-8226,36.5 µM (inactive)
same,GI50,RXF 393,87.1 µM (inactive)
same,GI50,SF-268,66.8 µM (inactive)
same,GI50,SF-295,38.7 µM (inactive)
same,GI50,SF-539,30.7 µM (inactive)
same,GI50,SK-MEL-2,52.6 µM (inactive)
same,GI50,SK-MEL-5,21.7 µM (inactive)
same,GI50,SK-OV-3,49.4 µM (inactive)
same,GI50,SN12C,> 100 µM (inactive)
same,GI50,SNB-19,26.9 µM (inactive)
same,GI50,SNB-75,28.2 µM (inactive)
same,GI50,SW-620,48.9 µM (inactive)
same,GI50,T47D,27.7 µM (inactive)
same,GI50,TK-10,> 100 µM (inactive)
same,GI50,U-251,42.4 µM (inactive)
same,GI50,UACC-257,74.5 µM (inactive)
same,GI50,UACC-62,42.2 µM (inactive)
same,GI50,UO-31,27.3 µM (inactive)
CCOC(=O)/C=C(\C(=O)OCC)n1ccc(=O)n(Cc2cnnn2COCCOC(C)=O)c1=O,GI50,786-0,3.73 µM (inactive)
same,GI50,A498,23 µM (inactive)
same,GI50,A549,21.6 µM (inactive)
same,GI50,ACHN,3.79 µM (inactive)
same,GI50,BT-549,8.28 µM (inactive)
same,GI50,CAKI-1,2.97 µM (inactive)
same,GI50,CCRF-CEM,1.61 µM (inactive)
same,GI50,COLO 205,1.77 µM (inactive)
same,GI50,DU-145,18.8 µM (inactive)
same,GI50,EKVX,14.5 µM (inactive)
same,GI50,HCC 2998,17.9 µM (inactive)
same,GI50,HCT-116,9.25 µM (inactive)
same,GI50,HCT-15,7.67 µM
same,GI50,HL-60,0.598 µM (active)
same,GI50,HOP-62,18.9 µM (inactive)
same,GI50,HT-29,14.2 µM (inactive)
same,GI50,Hs-578T,20.5 µM (inactive)
same,GI50,IGROV-1,16.8 µM (inactive)
same,GI50,K562,3.48 µM (inactive)
same,GI50,KM12,16.1 µM (inactive)
same,GI50,LOX IMVI,12.2 µM (inactive)
same,GI50,M14,15.1 µM (inactive)
same,GI50,MCF7,6.4 µM (inactive)
same,GI50,MDA-MB-231,17.6 µM (inactive)
same,GI50,MDA-MB-435,8.59 µM (inactive)
same,GI50,MDA-N,16.8 µM (inactive)
same,GI50,MOLT-4,2.59 µM (inactive)
same,GI50,Malme-3M,2.04 µM (inactive)
same,GI50,NCI-H226,16.8 µM (inactive)
same,GI50,NCI-H23,17.3 µM (inactive)
same,GI50,NCI-H460,14.2 µM (inactive)
same,GI50,NCI-H522,1.61 µM (inactive)
same,GI50,NCI/ADR-RES,22.9 µM (inactive)
same,GI50,OVCAR-3,11 µM (inactive)
same,GI50,OVCAR-4,23.9 µM (inactive)
same,GI50,OVCAR-5,15.6 µM (inactive)
same,GI50,OVCAR-8,12.1 µM (inactive)
same,GI50,PC-3,14.3 µM (inactive)
same,GI50,RPMI-8226,8.15 µM (inactive)
same,GI50,RXF 393,1.85 µM (inactive)
same,GI50,SF-268,16.5 µM (inactive)
same,GI50,SF-295,28.7 µM (inactive)
same,GI50,SF-539,2.36 µM (inactive)
same,GI50,SK-MEL-28,10 µM (inactive)
same,GI50,SK-MEL-2,18.4 µM (inactive)
same,GI50,SK-MEL-5,21.9 µM (inactive)
same,GI50,SK-OV-3,53.7 µM (inactive)
same,GI50,SN12C,15.4 µM (inactive)
same,GI50,SNB-19,> 46.7 µM (inactive)
same,GI50,SNB-75,16.4 µM (inactive)
same,GI50,SW-620,2.16 µM (inactive)
same,GI50,T47D,6.11 µM (inactive)
same,GI50,TK-10,5.64 µM (inactive)
same,GI50,U-251,16.4 µM (inactive)
same,GI50,UACC-257,16.2 µM (inactive)
same,GI50,UACC-62,16.1 µM (inactive)
same,GI50,UO-31,16.8 µM (inactive)
Cc1ccc(N(C)S(=O)(=O)c2ccc([N+](=O)[O-])cc2)cc1,GI50,786-0,> 100 µM (inactive)
same,GI50,A549,> 100 µM (inactive)
same,GI50,ACHN,> 100 µM (inactive)
same,GI50,BT-549,> 100 µM (inactive)
same,GI50,CAKI-1,> 100 µM (inactive)
same,GI50,CCRF-CEM,> 100 µM (inactive)
same,GI50,COLO 205,> 100 µM (inactive)
same,GI50,DU-145,> 100 µM (inactive)
same,GI50,EKVX,> 100 µM (inactive)
same,GI50,HCC 2998,93.5 µM (inactive)
same,GI50,HCT-116,> 100 µM (inactive)
same,GI50,HCT-15,91.4 µM
same,GI50,HL-60,54.6 µM (inactive)
same,GI50,HOP-62,> 100 µM (inactive)
same,GI50,HT-29,74.6 µM (inactive)
same,GI50,Hs-578T,> 100 µM (inactive)
same,GI50,IGROV-1,> 100 µM (inactive)
same,GI50,K562,41 µM (inactive)
same,GI50,KM12,74.6 µM (inactive)
same,GI50,LOX IMVI,> 100 µM (inactive)
same,GI50,M14,49.8 µM (inactive)
same,GI50,MCF7,> 100 µM (inactive)
same,GI50,MDA-MB-231,85.3 µM (inactive)
same,GI50,MDA-MB-435,81.8 µM (inactive)
same,GI50,MDA-N,> 100 µM (inactive)
same,GI50,MOLT-4,34.9 µM (inactive)
same,GI50,Malme-3M,38.2 µM (inactive)
same,GI50,NCI-H226,48.9 µM (inactive)
same,GI50,NCI-H460,74 µM (inactive)
same,GI50,NCI-H522,> 100 µM (inactive)
same,GI50,NCI/ADR-RES,97.9 µM (inactive)
same,GI50,OVCAR-3,> 100 µM (inactive)
same,GI50,OVCAR-4,> 100 µM (inactive)
same,GI50,OVCAR-5,> 100 µM (inactive)
same,GI50,OVCAR-8,> 100 µM (inactive)
same,GI50,PC-3,34.4 µM (inactive)
same,GI50,RPMI-8226,59 µM (inactive)
same,GI50,RXF 393,> 100 µM (inactive)
same,GI50,SF-268,> 100 µM (inactive)
same,GI50,SF-295,92.3 µM (inactive)
same,GI50,SF-539,> 100 µM (inactive)
same,GI50,SK-MEL-28,> 100 µM (inactive)
same,GI50,SK-MEL-2,> 100 µM (inactive)
same,GI50,SK-MEL-5,> 10 µM (inactive)
same,GI50,SK-OV-3,> 100 µM (inactive)
same,GI50,SN12C,> 100 µM (inactive)
same,GI50,SNB-19,> 100 µM (inactive)
same,GI50,SNB-75,> 100 µM (inactive)
same,GI50,SR,78.2 µM (inactive)
same,GI50,SW-620,> 100 µM (inactive)
same,GI50,TK-10,> 100 µM (inactive)
same,GI50,U-251,> 100 µM (inactive)
same,GI50,UACC-257,> 100 µM (inactive)
same,GI50,UACC-62,52.5 µM (inactive)
same,GI50,UO-31,44.3 µM (inactive)
